Key:
[1] = biological target: T1, KARS1 and 37LR (Homo sapiens, UniProt Q15046); experiment: Cell-free ELISA of KARS1 and 37LR (laminin receptor) binding; settings: 10 µM compound, 1 hour, plate coated with KARS1 (1-207aa), LRF
T1 construct: KARS1 (1-207aa)
Experimental: Next, based on the mechanism of action, a cell-free ELISA analysis was conducted to select compounds with high inhibitory activity on the binding of KARS1 and LR (laminin receptor).

[2] = test system: Raw 264.7 cells; experiment: LN (Laminin 421)-induced immune cell migration, Transwell; assay type: cell-based; settings: Mus musculus, RAW264.7; 3 µM compound, LN (Laminin 421 1 µg/ml), 24 hours, % inhibition compared to control group; read-out: Migration inhibitor % (3uM)
Experimental: Cell migration was assessed based on the method described in the prior literature (Park, S. G. et al. Human lysyl-tRNA synthetase is secreted to trigger proinflammatory response. Proceedings of the National Academy of Sciences, 2005, 102.18: 6356-6361.). The specific experimental method is as follows. A Transwell (Corning#3421-5µm pore) was coated with gelatin (0.5mg/ml), and then Raw 264.7 cells (1 x 10^5 cells/well) were seeded in the upper chamber. Serum-free medium (Serum Free DMEM, 500 µl) containing LN (Laminin 421 1 µg/ml) was added to the lower chamber. Each compound was treated at a concentration of 3µM in the upper chamber. After 24 hours, the cells were fixed with 70% methanol for 30 minutes and stained with 50% hematoxylin for 30 minutes. Non-migrating cells on the upper side of the membrane were removed with a cotton swab, and the membrane was mounted on a slide. Migrating cells on the lower side of the membrane were observed under a high-power microscope, and the number of cells was measured from the obtained images and expressed as the inhibition rate (% inhibition) compared to the control group.

[3] = test system: Raw264.7 cells; experiment: KARS1-induced trans-migration assay; assay type: cell-based, mouse; settings: Mus musculus, RAW264.7; 1 µM compound; read-out: KARS1-induced Raw264.7 cell migration (% inhibition, 1uM)
Experimental: C0001 inhibits the binding of KARS1 and 67LR, thereby blocking the migration of monocytes/macrophages and suppressing inflammation. Accordingly, a trans-migration assay using mouse macrophages (Raw264.7) was conducted to preliminarily screen drugs that inhibit the migration of monocytes/macrophages.
Based on this, when KARS1 protein was directly treated externally instead of LN, the trans-migration of Raw264.7 was induced, and the cell migration inhibitory effect of the KARS1 inhibitor C0001 was confirmed. It was verified that C0001, which specifically binds to KARS1, can inhibit cell migration by binding to extracellular KARS1, in addition to the mechanism of inhibiting cell membrane migration of KARS1 induced by laminin and its binding to 67LR, thereby enabling this analysis to be used as a direct method for evaluating in vitro activity against KARS1.
Next, preliminary candidate substances with high inhibitory activity at 1 µM were treated at concentrations of 0.1~4 µM for analysis.

T1 sequence (Q15046 1-207): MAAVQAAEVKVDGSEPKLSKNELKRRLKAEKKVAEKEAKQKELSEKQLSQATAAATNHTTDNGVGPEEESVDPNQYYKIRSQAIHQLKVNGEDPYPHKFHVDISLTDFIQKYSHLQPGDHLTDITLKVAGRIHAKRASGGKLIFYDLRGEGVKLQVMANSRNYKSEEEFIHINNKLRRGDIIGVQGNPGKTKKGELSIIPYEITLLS

Row | Structure (SMILES) | inhibition at 10 µM [1] [%] | inhibition at 3 µM [2] [%] | inhibition at 1 µM [3] [%]
1 | COc1ccc(CCN(Cc2ccc(-c3ccccc3)cc2)c2nc3cccnc3s2)cc1 [Compound 1, N-([1,1'-biphenyl]-4-ylmethyl)-N-(4-methoxyphenethyl)thiazolo[5,4-b]pyridin-2-amine] | -6 | 8.8 | 19.8
2 | COc1ccc(CCN(Cc2ccc(CCC(=O)O)cc2)c2nc3cccc(F)c3s2)cc1 [Compound 2, 3-(4-(((7-fluorobenzo[d]thiazol-2-yl)(4-methoxyphenethyl)amino)-methyl)phenyl)propanoic acid] | 79.4 | 15.7 | 98.1
3 | CCN(CC)C(=O)C#Cc1ccc(CN(CCc2ccc(OC)cc2)c2nc3cccc(F)c3s2)cc1 [Compound 3, N,N-diethyl-3-(4-(((7-fluorobenzo[d]thiazol-2-yl)(4-methoxyphenethyl)amino)methyl)phenyl)propiolamide] | 4.7 | 0 | 22.6
4 | CNC(=O)C#Cc1ccc(CN(CCc2ccc(OC)cc2)c2nc3cccc(F)c3s2)cc1 [Compound 4, 3-(4-(((7-fluorobenzo[d]thiazol-2-yl)(4-methoxyphenethyl)amino)-methyl)phenyl)-N-methylpropiolamide] | 13.8 | 88 | 9.8
5 | COc1ccc(CCN(Cc2ccc(C#CC(N)=O)cc2)c2nc3cccc(F)c3s2)cc1 [Compound 5, 3-(4-(((7-fluorobenzo[d]thiazol-2-yl)(4-methoxyphenethyl)amino)-methyl)phenyl)propiolamide] | 0.8 | 77.7 | 95.6
6 | COc1ccc(CCNc2ncc3ccn(C)c3n2)cc1 [Compound 6, N-(4-methoxyphenethyl)-7-methyl-7H-pyrrolo[2,3-d]pyrimidin-2-amine] | 14.8 | 5.1 | 23.5
7 | COc1ccc(CCN(Cc2ccc(Br)cc2)c2ncc3ccn(C)c3n2)cc1 [Compound 7, N-(4-bromobenzyl)-N-(4-methoxyphenethyl)-7-methyl-7H-pyrrolo[2,3-d]pyrimidin-2-amine] | 9.5 | 10.9 | 39.1
8 | COc1ccc(CCN(Cc2cccc(C#C[Si](C)(C)C)c2)c2nc3cccc(F)c3s2)cc1 [Compound 8, 7-fluoro-N-(4-methoxyphenethyl)-N-(3-((trimethylsilyl)ethynyl)-benzyl)benzo[d]thiazol-2-amine] | 13.4 | 27 | 
9 | C#Cc1cccc(CN(CCc2ccc(OC)cc2)c2nc3cccc(F)c3s2)c1 [Compound 9, N-(3-ethynylbenzyl)-7-fluoro-N-(4-methoxyphenethyl)benzo[d]thiazol-2-amine] | 8.5 | 0 | 
10 | COc1ccc(CCN(Cc2ccc(C#C[Si](C)(C)C)cc2)c2ncc3ccn(C)c3n2)cc1 [Compound 10, N-(4-methoxyphenethyl)-7-methyl-N-(4-((trimethylsilyl)ethynyl)-benzyl)-7H-pyrrolo[2,3-d]pyrimidin-2-amine] | 9.8 | 0 | 11.7
11 | C#Cc1ccc(CN(CCc2ccc(OC)cc2)c2ncc3ccn(C)c3n2)cc1 [Compound 11, N-(4-ethynylbenzyl)-N-(4-methoxyphenethyl)-7-methyl-7H-pyrrolo[2,3-d]pyrimidin-2-amine] | 3 | 12 | 37.8
12 | COc1ccc(CCN(Cc2ccc(C#CC(=O)O)cc2)c2nc3ccc(=O)[nH]c3s2)cc1 [Compound 45, 3-(4-(((4-methoxyphenethyl)(5-oxo-4,5-dihydrothiazolo[5,4-b]pyridin-2-yl)amino)methyl)phenyl)propiolic acid] |  | 7.8 | 39.8

Continued, in another order:

Row | inhibition at 10 µM [1] [%] | Structure (SMILES) | inhibition at 3 µM [2] [%] | inhibition at 1 µM [3] [%]
13 | 57.9 | COc1ccc(CCN(Cc2ccc(C#CC(=O)O)cc2)c2ncc3ccn(C)c3n2)cc1 [Compound 12, 3-(4-(((4-methoxyphenethyl)(7-methyl-7H-pyrrolo[2,3-d]pyrimidin-2-yl)amino)methyl)phenyl)propiolic acid] | 43 | 55.1
14 | 100 | COc1ccc(CCN(Cc2ccc(C(=O)N3CCC[C@H]3C(=O)O)cc2)c2nc3cccc(F)c3s2)cc1 [Compound 14, (4-(((7-fluorobenzo[d]thiazol-2-yl)(4-methoxyphenethyl)amino)-methyl)benzoyl)-L-proline] | 32 | 73.4
15 | 86.4 | COc1ccc(CCN(Cc2ccc(C(=O)N3CCC(C(=O)O)C3)cc2)c2nc3cccc(F)c3s2)cc1 (stereo not drawn) [Compound 15, 1-(4-(((7-fluorobenzo[d]thiazol-2-yl)(4-methoxyphenethyl)amino)-methyl)benzoyl)pyrrolidine-3-carboxylic acid] | 0 | 54.4
16 | 68.2 | COc1ccc(CCN(Cc2ccc(C(=O)NCC(=O)O)cc2)c2nc3cccc(F)c3s2)cc1 [Compound 16, (4-(((7-fluorobenzo[d]thiazol-2-yl)(4-methoxyphenethyl)amino)-methyl)benzoyl)glycine] | 33 | 86.2
17 | 86.2 | COc1ccc(CCN(Cc2ccc(C(=O)N[C@@H](C(=O)O)C(C)C)cc2)c2nc3cccc(F)c3s2)cc1 [Compound 18, (4-(((7-fluorobenzo[d]thiazol-2-yl)(4-methoxyphenethyl)amino)-methyl)benzoyl)-D-valine] | 9 | 31
18 | 75.8 | COc1ccc(CCN(Cc2ccc(N3CCC[C@H]3C(=O)O)cc2)c2nc3cccc(F)c3s2)cc1 [Compound 19, (4-(((7-fluorobenzo[d]thiazol-2-yl)(4-methoxyphenethyl)amino)-methyl)phenyl)-L-proline] | 15 | 69
19 | 3.4 | COc1ccc(CCN(Cc2cccc(N3CCC[C@H]3C(=O)O)c2)c2nc3cccc(F)c3s2)cc1 [Compound 20, (3-(((7-fluorobenzo[d]thiazol-2-yl)(4-methoxyphenethyl)amino)-methyl)phenyl)-L-proline] | 18 | 49.1
20 | 8.9 | COc1ccc(CCN(Cc2nc3ccc(B(O)O)cc3n2C)c2nc3cccc(F)c3s2)cc1 [Compound 21, (2-(((7-fluorobenzo[d]thiazol-2-yl)(4-methoxyphenethyl)amino)-methyl)-1-methyl-1H-benzo[d]imidazol-6-yl)boronic acid] | 36 | 26.1
21 | 52 | COc1ccc(CCN(Cc2cccc(N3CC[C@H](C(=O)O)C3)c2)c2nc3cccc(F)c3s2)cc1 [Compound 22, (S)-1-(3-(((7-fluorobenzo[d]thiazol-2-yl)(4-methoxyphenethyl)amino)-methyl)phenyl)pyrrolidine-3-carboxylic acid] | 19 | 43.4
22 | 71.6 | COc1ccc(CCN(Cc2cccc(N3CC[C@@H](C(=O)O)C3)c2)c2nc3cccc(F)c3s2)cc1 [Compound 23, (R)-1-(3-(((7-fluorobenzo[d]thiazol-2-yl)(4-methoxyphenethyl)amino)-methyl)phenyl)pyrrolidine-3-carboxylic acid] | 59 | 35.4
23 | 65.9 | COc1ccc(CCN(Cc2ccc(N3CC[C@@H](C(=O)O)C3)cc2)c2nc3cccc(F)c3s2)cc1 [Compound 24, (R)-1-(4-(((7-fluorobenzo[d]thiazol-2-yl)(4-methoxyphenethyl)-amino)methyl)phenyl)pyrrolidine-3-carboxylic acid] | 68 | 96.3
24 | 78.4 | COc1ccc(CCN(Cc2ccc(-c3ccc(C(=O)O)o3)cc2)c2nc3cccc(F)c3s2)cc1 [Compound 26, 5-(4-(((7-fluorobenzo[d]thiazol-2-yl)(4-methoxyphenethyl)amino)-methyl)phenyl)furan-2-carboxylic acid] | 48 | 80.6
